# Measured values taken from US20220235034A1, “SELECTIVE HISTAMINE H3 RECEPTOR ANTAGONISTS FOR TREATING AUTISM SPECTRUM DISORDER” (RICHTER GEDEON NYRT., priority 2019, published 2022).
# “Also recorded” adds a separate entry of the source.
# Key:
# [1] = test system: prenatally valproate-treated rats; assay: social play assay in prenatally valproate-treated rats; format: in vivo, rat; settings: postnatal day 30
# Method: (§1) In this method, time-mated female Wistar rats are administered a single dose of VPA (600 mg/kg, i.p.) on gestational day 12.5. Offspring are housed according to standard laboratory conditions until time of behavioral testing. Animals are housed in groups of 4 in conventional cages and maintained at 22-24° C. on a standard 12 hours light/dark cycle, with food and water available ad libitum. After investigational drug treatment, offspring are examined behaviorally in tests relevant for the assessment of autistic behavior. These tests include social play, social preference and social recognition memory. These tests are suitable to assess behavioral elements that represent core ASD symptoms in experimental animals. Efficaciousness of an investigational compound (ie. improvement of behavioral deficits induced by prenatal VPA exposure) may indicate usefulness in the pharmacotherapy of core symptoms of ASD. Doses of the investigational drug were corrected for the dicitrate salt with a correction factor of 2.07 and are expressed as free base. Reference is herein made to a parallel patent application filed by the applicant with the title of “Selective histamine H3 receptor antagonist acid addition salts and process for the preparation thereof” wherein the salts, including dicitrate salt is disclosed in detail.
# Social play is a type of social interaction that is highly typical of adolescent mammals including rodents as well as humans (Vanderschuren and Trezza, Curr. Topics Behav. Neurosci. 2014, 16:189-212). Social play behavior is indicative of healthy social functioning in adult life and is defective after prenatal VPA treatment in the offspring (Schneider and Przewlocki Neuropsychopharmacology 2005, 30:80-89). At postnatal day 30, following 8 days treatment with the test compound, prenatally VPA-treated rats are evaluated for juvenile play behavior. The test is carried out in a test arena unknown to the rats with pairs of animals from the same treatment group over a 15 min trial. Animals are scored for duration of social play behavior. […]
# [2] = test system: prenatally valproate-treated rats; assay: social recognition memory in the 3-chamber apparatus in prenatally valproate-treated rats; format: in vivo, rat; settings: postnatal day 60
# Method: In this method, time-mated female Wistar rats are administered a single dose of VPA (600 mg/kg, i.p.) on gestational day 12.5. Offspring are housed according to standard laboratory conditions until time of behavioral testing. Animals are housed in groups of 4 in conventional cages and maintained at 22-24° C. on a standard 12 hours light/dark cycle, with food and water available ad libitum. After investigational drug treatment, offspring are examined behaviorally in tests relevant for the assessment of autistic behavior. These tests include social play, social preference and social recognition memory. These tests are suitable to assess behavioral elements that represent core ASD symptoms in experimental animals. […] Doses of the investigational drug were corrected for the dicitrate salt with a correction factor of 2.07 and are expressed as free base. […]
# (§2) The social preference and recognition memory assays in a 3-chamber apparatus are further indicators of intact social behavior in rats. […] On postnatal day 59, prenatally VPA-treated rats are assessed for their social preference following 8 days of per os treatment with the test compound. On postnatal day 60, the same rats are assessed for their social recognition memory after 9 days of per os treatment with the test compound. […]
# [3] = test system: prenatally valproate-treated rats; assay: social preference in the 3-chamber apparatus in prenatally valproate-treated rats; format: in vivo, rat; settings: postnatal day 59
# Method: as §1
# as §2, with “rats. The preference of a conspecific over an inanimate object as well as the ability to distinguish between familiar and novel conspecifics are necessary for normal social functioning and are defective in the prenatal VPA model in rats (Bambini-Junior et al., Brain Res. 2011, 1408:8-16).” for “rats.”
# [4] = test system: prenatally valproate-exposed rat pups; assay: maternal deprivation-induced ultrasonic vocalization in prenatally valproate-exposed rat pups; format: in vivo; settings: 0.01-1 mg/kg oral, co-administered with oral risperidone 0.003 mg/kg; prenatal valproate 300 mg/kg
# Method: Maternal deprivation-induced ultrasonic vocalization in rat pups is a readout of socio-communicational function that is impaired in offspring after prenatal exposure to VPA (Gandal et al., Biol. Psychiatry 2010, 68, 1100-1106). To induce ultrasonic calls, prenatally VPA treated rat pups are placed individually into a cage where calls are being recorded with bat microphones. Calls are digitized with an audio filter and ultrasonic vocalization is recorded and quantified with SonoTrack software (Metris bv. The Netherlands). Baseline vocalization is measured on postnatal days 11-12 days for 10 min. Animals are divided into homogenous groups based on baseline vocalizations. On postnatal day 13, animals are treated p.o. with the appropriate doses of drug or vehicle 60 min before measurement and then returned to their nests until recording. Ultrasonic call counts are recorded for 10 min. Statistical analysis is performed on ultrasonic call counts with the non-parametric Kruskal-Wallis test and the post hoc Dunnett test.
# The behavioral effect of the co-administration of 1-[4-(4-{3-[(2R)-2-methyl-pyrrolidin-1-yl]-propoxy)-phenoxy)-piperidin-1-yl]-ethan-1-one dicitrate and risperidone was studied in prenatally valproate-exposed (300 mg/kg) rat pups on ultrasound emissions induced by separation from their mothers. […]
# [5] = test system: prenatal valproate exposure model; settings: dose of risperidone applied in the present study (0.003 mg/kg); cited from earlier work
Structure (SMILES),"significance of effect on social play versus VPA+VEH ([1]; 0.1 mg/kg per os once daily for 8 days, dicitrate)",significance of effect on social play versus VPA+VEH ([1]; 1 mg/kg per os once daily for 8 days),"reversal of the social play deficit induced by prenatal valproate treatment (duration of social play behavior) ([1]; per os once daily for 8 days, doses 0.01, 0.1 and 1 mg/kg (as free base), dicitrate)","effect on social recognition memory versus VPA+VEH familiar ([2]; 1 mg/kg per os once daily for 9 days, dicitrate)","reversal of the social recognition deficit induced by prenatal valproate treatment ([2]; per os once daily for 9 days, doses 0.01, 0.1 and 1 mg/kg)",effect on social preference versus VPA+VEH ([3]; 0.1 mg/kg per os once daily for 8 days),"effect on social preference versus VPA+VEH ([3]; 1 mg/kg per os once daily for 8 days, dicitrate)","reversal of the social preference deficit induced by prenatal valproate treatment ([3]; per os once daily for 8 days, doses 0.01, 0.1 and 1 mg/kg)",reversal of the socio-communicational defect (ultrasound emissions induced by separation from mothers) [4],efficacy signal in the prenatal valproate exposure model [5]
CC(=O)N1CCC(Oc2ccc(OCCCN3CCC[C@H]3C)cc2)CC1 [1-[4-(4-{3-[(2R)-2-methylpyrrolidin-1-yl]-propoxy}-phenoxy)-piperidin-1-yl]-ethan-1-on dicitrate],statistically significant; also recorded: reaching significance,statistically significant,reversed the social play deficit; also recorded: partially reversed social play deficits,statistically significant; also recorded: fully reversed social recognition memory deficits,reversed the social recognition deficit,statistically significant,statistically significant; also recorded: fully reversed social preference deficits,reversed the social preference deficit,dose-proportionally reversed the socio-communicational defect,–
Cc1nc2n(c(=O)c1CCN1CCC(c3noc4cc(F)ccc34)CC1)CCCC2 [risperidone],–,–,–,–,–,–,–,–,–,produce an efficacy signal
